From the supplement of paper PMC8967900

Tests used:
Experiment in all cases: selective drug sensitivity score (sDSS, relative to normal bone marrow) (sDSS (score)); higher = more potent and effective on the cell line relative to normal bone marrow cells
Details in all cases: 72 h
380 = tested on: 380
697 = tested on: 697
ALL-PO = tested on: ALL-PO
COG-LL-317 = tested on: COG-LL-317
COG-LL-319h = tested on: COG-LL-319h
COG-LL-355h = tested on: COG-LL-355h
HPB-ALL = tested on: HPB-ALL
KARPAS-45 = tested on: KARPAS-45
KASUMI-10 = tested on: KASUMI-10
KOPN-8 = tested on: KOPN-8
MHH-CALL-3 = tested on: MHH-CALL-3
MN-60 = tested on: MN-60
MOLT-14 = tested on: MOLT-14
MOLT-16 = tested on: MOLT-16
NALM-6 = tested on: NALM-6
P30-OHKUBO = tested on: P30-OHKUBO
PEER = tested on: PEER
PF-382 = tested on: PF-382
SUP-B15 = tested on: SUP-B15
TANOUE = tested on: TANOUE
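Further: ALL cell lines in 384-well plates, five doses spanning 10,000-fold, each plate scaled between vehicle and 100 µmol/L benzalkonium chloride controls, sDSS an adapted area-under-curve metric.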

| Structure (SMILES) | selective drug sensitivity score 380 | selective drug sensitivity score 697 | selective drug sensitivity score (ALL-PO) | selective drug sensitivity score (COG-LL-317) | selective drug sensitivity score (COG-LL-319h) | selective drug sensitivity score (COG-LL-355h) | selective drug sensitivity score (HPB-ALL) | selective drug sensitivity score (KARPAS-45) | selective drug sensitivity score (KASUMI-10) | selective drug sensitivity score (KOPN-8) | selective drug sensitivity score (MHH-CALL-3) | selective drug sensitivity score (MN-60) | selective drug sensitivity score (MOLT-14) | selective drug sensitivity score (MOLT-16) | selective drug sensitivity score (NALM-6) | selective drug sensitivity score (P30-OHKUBO) | selective drug sensitivity score (PEER) | selective drug sensitivity score (PF-382) | selective drug sensitivity score (SUP-B15) | selective drug sensitivity score (TANOUE) |
| --- | --- | --- | --- | --- | --- | --- | --- | --- | --- | --- | --- | --- | --- | --- | --- | --- | --- | --- | --- | --- |
| C[C@@H]1COCCN1c1cc(C2([S@](C)(=N)=O)CC2)nc(-c2cc[nH]c3nccc2-3)n1 [AZD6738] (top concentration 25000 nM) | 19.5 | 11 | 4.58 | 16 | 15.6 | 6.18 | 7.38 | 8.28 | 8.08 | 15.5 | 12.2 | -1.02 | 11.5 | 13 | 7.28 | 5.78 | 5.88 | 4.68 | 9.68 | -6.12 |
| NC1(C(=O)N[C@@H](CCO)c2ccc(Cl)cc2)CCN(c2ncnc3[nH]ccc23)CC1 [AZD-5363] (top concentration 10000 nM) | 8.82 | 5.32 | 5.82 | 8.82 | 4.72 | 5.92 | 1.82 | 5.82 | 1.62 | 6.72 | 6.72 | 0.12 | -1.88 | 13.3 | 7.12 | 5.22 | -0.88 | 4.42 | 0.42 | -2.88 |
| C[C@@H](Nc1cc(F)cc(F)c1)c1cc(C(=O)N(C)C)cc2c(=O)cc(N3CCOCC3)oc12 [AZD-8186] (top concentration 1000 nM) | 2.84 | 3.64 | 0.34 | -0.26 | 0.74 | 5.04 | 1.94 | 2.14 | -0.26 | 3.44 | 3.84 | -0.26 | -0.26 | -0.26 | 5.14 | 7.24 | -0.26 | 0.54 | -0.26 | -0.26 |
| COc1cccc2c1C(=O)c1c(O)c3c(c(O)c1C2=O)C[C@@](O)(/C(CO)=N/NC(=O)CCCCCN1C(=O)C=CC1=O)C[C@@H]3O[C@H]1C[C@H](N)[C@H](O)[C@H](C)O1 [Aldoxorubicin] (top concentration 1000 nM) | 13.2 | 10.2 | -2.06 | 14.8 | 14 | 4.44 | 1.04 | 0.94 | 9.24 | 14.2 | 14.1 | 0.84 | 12.9 | 16.6 | 4.34 | 7.34 | -3.06 | 3.24 | 12.5 | -7.76 |
| COc1cc(Nc2ncc3c(n2)-c2ccc(Cl)cc2C(c2c(F)cccc2OC)=NC3)ccc1C(=O)O [Alisertib] (top concentration 10000 nM) | 26.4 | 25 | 15.6 | 29.6 | 23.3 | 7.98 | 14.3 | 27.9 | 14.6 | 21.3 | 12 | -3.42 | 21 | 29.6 | 20.1 | 25.4 | 26.6 | 14.3 | 24 | -5.62 |
| Cc1nc(NC(=O)N2CCC[C@H]2C(N)=O)sc1-c1ccnc(C(C)(C)C(F)(F)F)c1 [Alpelisib] (top concentration 2500 nM) | 3.18 | 1.08 | 3.28 | -0.42 | 12.5 | 5.98 | 2.88 | 0.38 | -0.12 | 5.38 | -0.82 | 1.18 | -0.82 | -0.72 | 3.88 | 2.78 | -0.42 | 0.48 | -0.82 | -0.82 |
| CCN(CC)CCNC(=O)c1c(C)[nH]c(/C=C2\C(=O)Nc3ccc(-c4csc(-c5ccccc5)n4)cc32)c1C [Amcasertib] (top concentration 10000 nM) | 7.8 | 2.4 | 6.7 | 7.7 | -0.1 | 6.8 | 4.3 | 6.4 | 5.2 | -1.1 | -3.2 | -0.2 | 3.4 | 3.5 | 0 | 3.9 | 4 | 2.7 | 0.5 | -2.6 |
| COc1c(C)cnc(Cn2cnc3c(Cl)nc(N)nc32)c1C [BIIB021] (top concentration 10000 nM) | 7.68 | 4.28 | 5.88 | 10.2 | 1.78 | 0.38 | 3.58 | 8.88 | 8.78 | 12 | 9.58 | -2.62 | 7.28 | 12.7 | 7.88 | 3.38 | 3.58 | 5.78 | 4.48 | -8.12 |
| O=C(/C=C/c1cccc(S(=O)(=O)Nc2ccccc2)c1)NO [Belinostat] (top concentration 10000 nM) | 16.2 | 10.1 | 11.4 | 12.9 | 11.8 | 10.2 | 8.4 | 14.8 | 7.6 | 17.8 | 17.5 | 1.8 | 12.2 | 10.1 | 7.4 | 8 | 7.8 | 8.4 | 8.5 | -4.5 |
| Nc1cc(C(F)(F)F)c(-c2cc(N3CCOCC3)nc(N3CCOCC3)n2)cn1 [Buparlisib] (top concentration 10000 nM) | 7.18 | 7.38 | 9.58 | 1.08 | 4.58 | 5.68 | 6.38 | 5.28 | 2.48 | 7.28 | -1.22 | 2.68 | 5.48 | 4.08 | 4.78 | 7.28 | 6.48 | 5.38 | 4.38 | -1.22 |
| CCS(=O)(=O)N1CCN(c2ccc(Nc3ncc(C(N)=O)c(NC4CC4)n3)cc2)CC1 [Cerdulatinib] (top concentration 10000 nM) | -11.9 | -3.66 | 6.04 | -7.66 | 2.14 | -7.46 | -11.9 | -2.36 | 0.24 | 3.14 | -11.9 | -11.9 | -3.16 | -2.36 | 1.44 | 3.44 | -0.16 | -5.16 | 0.04 | -10.1 |
| CC(C)[C@H]1C(=O)N[C@@H](CCCNC(=N)N)C(=O)NCC(=O)N[C@@H](CC(=O)O)C(=O)N[C@H](Cc2ccccc2)C(=O)N1C [Cilengitide] (top concentration 10000 nM) | 11.3 | 0 | 0 | 0 | 0 | 0 | 0 | 0 | 0 | 13.8 | 0 | 0 | 0 | 0 | 0 | 4.2 | 0 | 0 | 0 | 0 |
| CC(C)(C)c1nc(-c2cccc(NS(=O)(=O)c3c(F)cccc3F)c2F)c(-c2ccnc(N)n2)s1 [Dabrafenib] (top concentration 2500 nM) | -1.52 | 11.5 | -0.22 | 0.18 | -0.92 | 0.38 | 2.98 | 2.18 | 0.58 | 8.48 | -1.52 | -0.92 | 1.48 | 4.68 | -0.52 | 5.18 | 3.48 | 0.38 | 1.88 | 0.48 |
| C[C@H]1O[C@@H](O[C@H]2[C@@H](O)C[C@H](O[C@H]3[C@@H](O)C[C@H](O[C@H]4CC[C@@]5(C)[C@H](CC[C@@H]6[C@@H]5C[C@@H](O)[C@]5(C)[C@@H](C7=CC(=O)OC7)CC[C@]65O)C4)O[C@@H]3C)O[C@@H]2C)C[C@H](O)[C@@H]1O [Digoxin] (top concentration 1000 nM) | 22.5 | 8.6 | 4 | 8.7 | 10.3 | 8.7 | 5.5 | 12.3 | 10 | 12.9 | 10.5 | 2.7 | 8 | 12 | 10.5 | 9.1 | 5.5 | 11.1 | 9.2 | -2.9 |
| C[C@H](Nc1ncnc2nc[nH]c12)c1cc2cccc(Cl)c2c(=O)n1-c1ccccc1 [Duvelisib] (top concentration 500 nM) | 1.46 | 2.16 | 0.86 | 1.96 | 3.56 | 4.96 | -0.94 | -0.44 | -0.94 | 0.16 | -0.14 | -0.94 | -0.94 | 1.26 | 4.36 | 5.76 | -0.94 | -0.94 | 0.06 | -0.94 |
| NC(=O)/C(=C/n1cnc(-c2cc(C(F)(F)F)cc(C(F)(F)F)c2)n1)c1cncnc1 [Eltanexor] (top concentration 10000 nM) | 13.6 | 13.2 | 11.4 | 14.7 | 8.46 | 14.5 | 5.86 | 8.96 | 2.36 | 14.2 | 22.3 | 0.06 | 15.4 | 14.4 | 10.6 | 11.8 | 7.56 | 8.36 | 13.7 | -11.8 |
| COC(=O)N[C@@H](C)CNc1nccc(-c2cn(C(C)C)nc2-c2cc(Cl)cc(NS(C)(=O)=O)c2F)n1 [Encorafenib] (top concentration 1000 nM) | 0 | 8 | 0 | 0 | 0 | 1.4 | 1.1 | 2.6 | 0 | 16.2 | 0 | 0 | 0 | 1 | 3.5 | 1.3 | 0.9 | 1.5 | 0.9 | 0 |
